Laboratory results as given in ChEMBL document CHEMBL6103638, “Dual Modulator of FXR and HSD17B13: Revitalizing FXR Therapies in MASH” (J Med Chem, 2025).
pEC50: −log10 of the molar value.

Molecular target: T1, Bile acid receptor (Homo sapiens, UniProt Q96RI1)
T1 sequence (Q96RI1 whole entry): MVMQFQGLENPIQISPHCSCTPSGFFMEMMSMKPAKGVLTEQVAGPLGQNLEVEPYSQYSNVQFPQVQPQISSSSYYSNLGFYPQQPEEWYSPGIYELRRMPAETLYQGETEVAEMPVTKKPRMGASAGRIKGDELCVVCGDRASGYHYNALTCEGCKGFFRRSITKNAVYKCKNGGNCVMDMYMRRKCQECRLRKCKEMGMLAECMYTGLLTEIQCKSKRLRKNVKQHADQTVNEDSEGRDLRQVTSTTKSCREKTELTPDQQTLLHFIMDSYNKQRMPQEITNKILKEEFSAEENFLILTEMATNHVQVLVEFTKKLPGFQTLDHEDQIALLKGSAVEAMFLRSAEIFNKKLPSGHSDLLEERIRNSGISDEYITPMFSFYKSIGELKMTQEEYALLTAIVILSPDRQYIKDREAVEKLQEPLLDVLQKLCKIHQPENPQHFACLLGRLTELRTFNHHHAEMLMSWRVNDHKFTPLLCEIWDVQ
Assay: Agonist activity at FXR (unknown origin)

`CC(C)(C)c1ccc(-n2cnc3c(NC(=O)Cc4ccc(C(=O)O)cc4)cccc32)cc1` was tested. Which pEC50 did it give?
Its pEC50 is 6.11.
